In patent US7812031B2, “Pyrimidine derivatives as orexin receptor antagonists” (Sanofi-Aventis, priority 2004, dated 2010):

Key:
[1] = target: T1, human recombinant orexin-1 (hr-OX-1) receptor (Homo sapiens, UniProt O43613); experiment: hr-125I-orexin-A radioligand competition binding, orexin-1 receptor; settings: displacement of 125I-orexin-A, CHO-hr-OX-1 plasmamembranes, 25° C., 60 minutes; read-out: Orex-1 IC50
T1 construct: expressed in transfected cells; host or cells: CHO (CHO-hr-OX-1 cells), purified plasma membrane fraction
T1 sequence (O43613 1-425): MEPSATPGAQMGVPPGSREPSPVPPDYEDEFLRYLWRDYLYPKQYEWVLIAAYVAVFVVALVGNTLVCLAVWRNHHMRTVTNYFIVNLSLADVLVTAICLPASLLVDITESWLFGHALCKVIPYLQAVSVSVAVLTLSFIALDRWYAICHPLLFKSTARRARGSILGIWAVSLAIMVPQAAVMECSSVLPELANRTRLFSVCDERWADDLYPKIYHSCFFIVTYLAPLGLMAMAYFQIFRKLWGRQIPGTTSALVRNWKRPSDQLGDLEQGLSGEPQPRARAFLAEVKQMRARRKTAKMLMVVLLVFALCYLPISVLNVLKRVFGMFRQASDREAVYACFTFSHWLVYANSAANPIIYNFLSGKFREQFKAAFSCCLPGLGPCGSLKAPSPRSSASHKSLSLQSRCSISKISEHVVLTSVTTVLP
Experimental: (§1) In vitro radioligand binding assays were used for determination of the affinities of the compounds for both the orexin-1 and orexin-2 receptors.
(§2) In the frame of hr-^125I-orexin-A radioligand competition (displacement) experiments a fixed concentration of hr-^125I-orexin-A is incubated with increasing concentrations of unlabeled test compound in the presence of highly purified plasmamembranes bearing either the human recombinant orexin-1 (hr-OX-1) or the human recombinant orexin-2 (hr-OX-2) receptors. Specific binding of hr-^125I-orexin-A to plasmamembranes is measured at each concentrations of the unlabeled compound and thus a competition curve is generated. The concentration of unlabeled compound displacing 50% of specific binding (IC50) is calculated. In case of competitive interaction the binding affinity constant of the unlabeled compound (K1) is calculated according to the Cheng-Prusoff equation (K1=IC50/(1+L*/KD). Affinity of unlabeled compound for the receptor is equal to 1/K1.
(§3) Culturing the Chinese hamster ovarian cells expressing human recombinant orexin-1 or orexin-2 receptor proteins (CHO-hr-OX-1 or CHO-hr-OX-2 cells) was carried out in cell culture medium (MEM medium, supplemented with 40 mg/l prolin, 20 mg/l gentamycin, 300 mg/l geneticin, 10% dialysed fetal calf serum).
(§4) Adherent cells were plated into Greiner flasks (175 cm^2). 4-6 days later culture medium was removed and cells were scarped in calcium- and magnesium-free phosphate buffered saline (PBS, 20 ml/flask). The cell suspension was centrifuged at 1,000 g for 5 minutes (4° C.). The resulting pellet was resuspended and homogenized with a teflon pestle (4° C.), then layered onto a discontinuous sucrose gradient and centrifuged at 105,000 g. Plasmamembrane fraction accumulated in the interface between 14 and 34% sucrose layers was separated and pelleted by a further centrifugation step at 105,000 g for 60 min (4° C.). The final pellet was resuspended in binding assay buffer and stored at −80° C. up to the day of radioligand binding experiment.
(§5) For ^125I-orexin-A competition binding studies, aliquots of cell membrane fractions containing either hr-orexin-1 or hr-orexin-2 receptors were incubated with ^125I-orexin-A in binding assay buffer at 25° C. for 60 minutes. Nonspecific binding was defined by 1 μM hr-orexin-A in both cases.
(§6) Test compounds were dissolved at a concentration of 1 mM in dimethylsulfoxide (DMSO). Serial dilution series were prepared from stock solutions (100% DMSO) with binding assay buffer in such a way that each samples contained a final concentration of 1% of DMSO in the receptor binding reaction mixture. After the incubation, samples were filtered through Whatman GF/C glass fibre filters using a SKATRON cell harvester, and the filters were washed with 5 ml of ice-cold buffer The radioactivity remained on the filter was counted in a gamma counter (Wallac Automatic Gamma Counter 1470 Wizard).

[2] = target: T2, human recombinant orexin-2 (hr-OX-2) receptor (Homo sapiens, UniProt O43614); experiment: hr-125I-orexin-A radioligand competition binding, orexin-2 receptor; settings: displacement of 125I-orexin-A, CHO-hr-OX-2 plasmamembranes, 25° C., 60 minutes; read-out: Orex-2 IC50
T2 construct: expressed in transfected cells; host or cells: CHO (CHO-hr-OX-2 cells), purified plasma membrane fraction
T2 sequence (O43614 1-444): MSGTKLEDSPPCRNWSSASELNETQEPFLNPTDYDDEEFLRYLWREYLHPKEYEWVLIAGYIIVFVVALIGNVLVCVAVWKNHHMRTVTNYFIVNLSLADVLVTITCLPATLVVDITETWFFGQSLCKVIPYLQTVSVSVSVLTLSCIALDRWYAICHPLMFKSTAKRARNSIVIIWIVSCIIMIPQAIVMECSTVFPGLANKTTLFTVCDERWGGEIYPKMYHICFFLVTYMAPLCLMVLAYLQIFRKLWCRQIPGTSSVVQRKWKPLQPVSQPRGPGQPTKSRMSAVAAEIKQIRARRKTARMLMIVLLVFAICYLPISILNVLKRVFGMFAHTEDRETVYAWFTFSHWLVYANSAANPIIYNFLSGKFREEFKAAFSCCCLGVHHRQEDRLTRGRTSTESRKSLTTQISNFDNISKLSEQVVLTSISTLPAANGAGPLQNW
Experimental: as §1, §2, §3, §4, §5, §6

| IC50 [1] | IC50 [2] | melting point | Structure (SMILES) |
| --- | --- | --- | --- |
| 30 nM | 2900 nM | – | CN(CC(O)c1cccc(OC(=O)C(C)(C)C)c1)C(=O)c1cnc(N(C)C)nc1-c1ccccc1Cl (centres unmarked) [2,2-Dimethylpropionic acid 3-{2-[(2-dimethylamino-4-(2-chlorophenyl)pyrimidine-5-carbonyl)methylamino]1-hydroxyethyl}phenyl ester] |
| 15 nM | 320 nM | – | COc1ccccc1C(=O)Nc1cccc(C(O)CN(C)C(=O)c2cnc(N(C)C)nc2-c2ccccc2)c1 (centres unmarked) [2-Dimethylamino-4-phenylpyrimidin-5-carboxylic acid {2-hydroxy-2-[3-(2-methoxy-benzoylamino)phenyl]ethyl}methylamide] |
| 12 nM | 5400 nM | – | CC(C(O)c1ccccc1)N(C)C(=O)c1cnc(NCc2ccccn2)nc1-c1ccccc1 (centres unmarked) [4-Phenyl-2-[(pyridin-2-ylmethyl)amino]pyrimidin-5-carboxylic acid (2-hydroxy-1-methyl-2-phenylethyl)methylamide] |
| – | – | 68 to 70 °C | CN(CC(O)c1cccc(OCc2ccccc2)c1)C(=O)c1cnc(N(C)C)nc1-c1ccc(Cl)c(Cl)c1 (centres unmarked) [Example 59, 2-Dimethylamino-4-(3,4-dichlorophenyl)pyrimidine-5-carboxylic acid [2-(3-benzyloxyphenyl)-2-hydroxyethyl]methylamide] |
| 30 nM | 3600 nM | – | CN(CC(O)c1cccc(OCc2ccccc2)c1)C(=O)c1cnc(N(C)C)nc1-c1ccccc1 (centres unmarked) [2-Dimethylamino-4-phenylpyrimidine-5-carboxylic acid [2-(3-benzyloxyphenyl)-2-hydroxyethyl]methylamide] |
| – | – | 85 to 87 °C | CN(CC(O)c1cccc(O)c1)C(=O)c1cnc(NCc2cccs2)nc1-c1ccccc1 (centres unmarked) (hydrate or solvate) [Example 17, 4-Phenyl-2-[(thiophen-2-ylmethyl)amino]pyrimidine-5-carboxylic acid [2-hydroxy-2-(3-hydroxyphenyl)ethyl]methylamide] |
| 22 nM | 5800 nM | – | Cc1ccccc1-c1nc(N(C)Cc2ccccc2)ncc1C(=O)N(C)CC(O)c1cccc(O)c1 (centres unmarked) [2-(Benzylmethylamino)-4-(2-methylphenyl)pyrimidine-5-carboxylic acid [2-hydroxy-2-(3-hydroxyphenyl)ethyl]methylamide] |
| 11 nM | 6700 nM | – | CN(Cc1ccccc1)c1ncc(C(=O)N2CCCCC2C(O)c2ccccc2)c(-c2ccccc2)n1 (racemic) |
